The subject of one assay is ENR+CD organoids. The experiment in a line: Primary screen: ATP (CellTiter-Glo 3D, CTG) cell number/viability, 2.5-D 384-well ENR+CD organoids.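 Also: compounds given at plating and again on day 3 over a 6-day differentiation from ENR+CV stem-cell-enriched precursors, ATP measured on day 6, plate median as control.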 The following applies: primary screen.
Assay [1] deals with ENR+CD organoids (ISC to Paneth cell differentiation). Briefly: Primary screen: CCh-stimulated lysozyme secretion LYZ.S, 2.5-D 384-well ENR+CD organoid differentiation. It counts as cell-based, mouse. The following applies: primary screen. From the text: (§1) High-throughput screening.
Assay [2] has the same test system. The experiment in a line: Primary screen: basal (non-stimulated) lysozyme secretion LYZ.NS, 2.5-D 384-well ENR+CD organoid differentiation. It counts as cell-based, mouse. The following applies: primary screen; for Z.LYZ.NS: standard z score.
Excerpt: as §1

The mark [3] stands for this setting: dose 0.08 uM, FC vs plate median.
[4] abbreviates: dose 0.40 uM, FC vs plate median.
[5] abbreviates: dose 2.00 uM, FC vs plate median.
The mark [6] stands for this setting: dose 10.00 uM, FC vs plate median.
Setting [7] is: dose 0.08 uM, FC relative to plate median.
[8] abbreviates: dose 0.40 uM, FC relative to plate median.
Where [9] appears, read: dose 2.00 uM, FC relative to plate median.
[10] abbreviates: dose 10.00 uM, FC relative to plate median.

Molecules are shown by their SMILES. Where a name gives a salt, the structure may show the parent alone.

With `Cc1cc(Nc2cc(CN3CCOCC3)c3nc(C)c(Cc4ccc(Cl)cc4F)n3n2)n[nH]1` [LY2784544], the “Dose.FC.CTG (log2 fold change)” value with ENR+CD organoids (dose 0.08 uM) is listed as 0.108; in the assay on ENR+CD organoids (dose 0.40 uM), 0.062; with ENR+CD organoids (dose 2.00 uM), 0.181; with ENR+CD organoids (dose 10.00 uM) it was −0.831. The “Z.CTG (standard z score)” value is listed as 0.259 in the assay with ENR+CD organoids (dose 0.08 uM), 0.148 in the assay on ENR+CD organoids (dose 0.40 uM), 0.433 in the assay with ENR+CD organoids (dose 2.00 uM) and −1.984 in the assay with ENR+CD organoids (dose 10.00 uM). For the same molecule, the “Dose.FC.LYZ.S (log2 fold change)” value in assay [1] (dose 0.08 uM) is recorded as 0.123; in assay [1] (dose 0.40 uM), 0.077; in assay [1] (dose 2.00 uM) it was 0.114; in assay [1] (dose 10.00 uM), −0.367. Moreover, the “Dose.FC.LYZ.NS (log2 fold change)” value in assay [2] (dose 0.08 uM) was 0.132; in assay [2] (dose 0.40 uM), 0.004; in assay [2] (dose 2.00 uM) it was 0.068; in assay [2] (dose 10.00 uM) it was −0.280. For the same molecule, the “Z.LYZ.NS (standard z score)” value is reported as 1.152 in assay [2] (dose 0.08 uM), 0.033 in assay [2] (dose 0.40 uM), 0.591 in assay [2] (dose 2.00 uM) and −2.439 in assay [2] (dose 10.00 uM).
For `Cc1cc(C(C)(C)C)c(O)c(C)c1CC1=NCCN1` [Oxymetazoline HCl], the Dose.FC.CTG with ENR+CD organoids (setting [3]) is recorded as 0.143 log2 fold change; with ENR+CD organoids (setting [4]) it was 0.118 log2 fold change; in the assay on ENR+CD organoids (setting [5]), −0.007 log2 fold change; in the assay with ENR+CD organoids (setting [6]), 0.118 log2 fold change. The Dose.FC.LYZ.S was 0.143 log2 fold change in assay [1] (setting [3]), 0.116 log2 fold change in assay [1] (setting [4]), −0.012 log2 fold change in assay [1] (setting [5]) and −0.046 log2 fold change in assay [1] (setting [6]). For the same molecule, the Z.LYZ.NS was 0.515 in assay [2] (dose 0.08 uM), 0.134 in assay [2] (dose 0.40 uM), 0.199 in assay [2] (dose 2.00 uM) and 0.065 in assay [2] (dose 10.00 uM). Besides, the Dose.FC.LYZ.NS in assay [2] (setting [3]) stood at 0.059 log2 fold change; in assay [2] (setting [4]), 0.015 log2 fold change; in assay [2] (setting [5]), 0.023 log2 fold change; in assay [2] (setting [6]), 0.007 log2 fold change.
For `CC(=O)Nc1cccc2c1c(Sc1ccc(Cl)cc1)c(C)n2CC(=O)O` [AZD1981], the Dose.FC.CTG in the assay with ENR+CD organoids (dose 0.08 uM) came out at 0.400 log2 fold change; in the assay with ENR+CD organoids (dose 0.40 uM), 0.285 log2 fold change; in the assay on ENR+CD organoids (dose 2.00 uM), 0.099 log2 fold change; in the assay on ENR+CD organoids (dose 10.00 uM) it was 0.238 log2 fold change. Moreover, the “Z.CTG (standard z score)” value with ENR+CD organoids (dose 0.08 uM) turned out to be 0.955; with ENR+CD organoids (dose 0.40 uM), 0.681; in the assay with ENR+CD organoids (dose 2.00 uM), 0.236; with ENR+CD organoids (dose 10.00 uM) it was 0.570. The Dose.FC.LYZ.S stood at 0.023 log2 fold change in assay [1] (dose 0.08 uM), 0.191 log2 fold change in assay [1] (dose 0.40 uM), 0.014 log2 fold change in assay [1] (dose 2.00 uM) and 0.070 log2 fold change in assay [1] (dose 10.00 uM). The Dose.FC.LYZ.NS in assay [2] (dose 0.08 uM) amounted to 0.009 log2 fold change; in assay [2] (dose 0.40 uM) it was 0.001 log2 fold change; in assay [2] (dose 2.00 uM), 0.001 log2 fold change; in assay [2] (dose 10.00 uM), 0.024 log2 fold change. Moreover, the “Z.LYZ.NS (standard z score)” value in assay [2] (dose 0.08 uM) came to 0.081; in assay [2] (dose 0.40 uM) it was 0.008; in assay [2] (dose 2.00 uM) it was 0.011; in assay [2] (dose 10.00 uM) it was 0.205.
On to `CC(C)N(CCCNC(=O)Nc1ccc(C(C)(C)C)cc1)C[C@H]1O[C@@H](n2cc(Br)c3c(N)ncnc32)[C@H](O)[C@@H]1O` [SGC0946], for which the Dose.FC.CTG in the assay on ENR+CD organoids (setting [7]) is 0.052 log2 fold change; in the assay with ENR+CD organoids (setting [8]), −0.122 log2 fold change; in the assay with ENR+CD organoids (setting [9]), −0.082 log2 fold change; in the assay on ENR+CD organoids (setting [10]), −0.142 log2 fold change. The Dose.FC.LYZ.S was 0.145 log2 fold change in assay [1] (setting [7]), −0.098 log2 fold change in assay [1] (setting [8]), 0.220 log2 fold change in assay [1] (setting [9]) and 0.065 log2 fold change in assay [1] (setting [10]). The Dose.FC.LYZ.NS was 0.090 log2 fold change in assay [2] (setting [7]), −0.027 log2 fold change in assay [2] (setting [8]), 0.200 log2 fold change in assay [2] (setting [9]) and 0.059 log2 fold change in assay [2] (setting [10]). For the same molecule, the Z.LYZ.NS is on record as 0.787 in assay [2] (dose 0.08 uM), −0.236 in assay [2] (dose 0.40 uM), 1.738 in assay [2] (dose 2.00 uM) and 0.516 in assay [2] (dose 10.00 uM).
As for `COC1CCN(C(=O)c2cc(Cc3n[nH]c(=O)c4ccccc34)ccc2F)CC1` [AZD2461], the Dose.FC.CTG was 0.073 log2 fold change in the assay with ENR+CD organoids (dose 0.08 uM), −0.040 log2 fold change in the assay on ENR+CD organoids (dose 0.40 uM), −0.232 log2 fold change in the assay with ENR+CD organoids (dose 2.00 uM) and −0.336 log2 fold change with ENR+CD organoids (dose 10.00 uM). For the same molecule, the “Z.CTG (standard z score)” value is 0.174 in the assay with ENR+CD organoids (dose 0.08 uM), −0.095 in the assay with ENR+CD organoids (dose 0.40 uM), −0.555 in the assay with ENR+CD organoids (dose 2.00 uM) and −0.803 with ENR+CD organoids (dose 10.00 uM). The Dose.FC.LYZ.S is on record as 0.097 log2 fold change in assay [1] (dose 0.08 uM), 0.015 log2 fold change in assay [1] (dose 0.40 uM), −0.100 log2 fold change in assay [1] (dose 2.00 uM) and −0.224 log2 fold change in assay [1] (dose 10.00 uM). Besides, the Dose.FC.LYZ.NS in assay [2] (dose 0.08 uM) is 0.038 log2 fold change; in assay [2] (dose 0.40 uM), −0.038 log2 fold change; in assay [2] (dose 2.00 uM), −0.074 log2 fold change; in assay [2] (dose 10.00 uM), −0.172 log2 fold change. For the same molecule, the “Z.LYZ.NS (standard z score)” value in assay [2] (dose 0.08 uM) is recorded as 0.334; in assay [2] (dose 0.40 uM), −0.327; in assay [2] (dose 2.00 uM), −0.641; in assay [2] (dose 10.00 uM), −1.497.
`Oc1nc(-c2ccc(C(F)(F)F)cc2)nc2c1CSCC2` [XAV-939]: the Dose.FC.CTG in the assay with ENR+CD organoids (dose 0.08 uM) is listed as −0.332 log2 fold change; with ENR+CD organoids (dose 0.40 uM), −0.027 log2 fold change; in the assay on ENR+CD organoids (dose 2.00 uM), −0.355 log2 fold change; in the assay with ENR+CD organoids (dose 10.00 uM) it was −0.899 log2 fold change. The Dose.FC.LYZ.S in assay [1] (dose 0.08 uM) is 0.074 log2 fold change; in assay [1] (dose 0.40 uM), 0.085 log2 fold change; in assay [1] (dose 2.00 uM) it was −0.068 log2 fold change; in assay [1] (dose 10.00 uM) it was −0.231 log2 fold change. Moreover, the Dose.FC.LYZ.NS in assay [2] (dose 0.08 uM) is 0.058 log2 fold change; in assay [2] (dose 0.40 uM), 0.020 log2 fold change; in assay [2] (dose 2.00 uM) it was −0.044 log2 fold change; in assay [2] (dose 10.00 uM), −0.131 log2 fold change. Also, the “Z.LYZ.NS (standard z score)” value in assay [2] (dose 0.08 uM) is reported as 0.505; in assay [2] (dose 0.40 uM) it was 0.177; in assay [2] (dose 2.00 uM) it was −0.386; in assay [2] (dose 10.00 uM), −1.142.
`CCOC(=O)N1c2ccc(C(F)(F)F)cc2[C@@H](N(Cc2cc(C(F)(F)F)cc(C(F)(F)F)c2)C(=O)OC)C[C@H]1CC` [Torcetrapib]: the Dose.FC.CTG with ENR+CD organoids (dose 0.08 uM) is recorded as 0.283 log2 fold change; in the assay on ENR+CD organoids (dose 0.40 uM), 0.061 log2 fold change; in the assay on ENR+CD organoids (dose 2.00 uM), −0.121 log2 fold change; in the assay on ENR+CD organoids (dose 10.00 uM), −0.151 log2 fold change. Besides, the Dose.FC.LYZ.S in assay [1] (dose 0.08 uM) was 0.320 log2 fold change; in assay [1] (dose 0.40 uM), 0.045 log2 fold change; in assay [1] (dose 2.00 uM) it was −0.098 log2 fold change; in assay [1] (dose 10.00 uM), −0.056 log2 fold change. Moreover, the Dose.FC.LYZ.NS in assay [2] (dose 0.08 uM) is 0.114 log2 fold change; in assay [2] (dose 0.40 uM), −0.063 log2 fold change; in assay [2] (dose 2.00 uM), −0.136 log2 fold change; in assay [2] (dose 10.00 uM), −0.012 log2 fold change. In addition, the “Z.LYZ.NS (standard z score)” value is recorded as 0.991 in assay [2] (dose 0.08 uM), −0.546 in assay [2] (dose 0.40 uM), −1.185 in assay [2] (dose 2.00 uM) and −0.108 in assay [2] (dose 10.00 uM).
Consider `CCO[C@@H]1OC(=O)C[C@@H]1NC(=O)[C@@H]1CCCN1C(=O)[C@@H](NC(=O)c1ccc(N)c(Cl)c1)C(C)(C)C` [VX-765], for which the Dose.FC.CTG in the assay with ENR+CD organoids (dose 0.08 uM) is on record as 0.154 log2 fold change; with ENR+CD organoids (dose 0.40 uM), 0.232 log2 fold change; with ENR+CD organoids (dose 2.00 uM), 0.165 log2 fold change; in the assay on ENR+CD organoids (dose 10.00 uM), 0.254 log2 fold change. Besides, the Dose.FC.LYZ.S in assay [1] (dose 0.08 uM) came to 0.091 log2 fold change; in assay [1] (dose 0.40 uM) it was 0.032 log2 fold change; in assay [1] (dose 2.00 uM), 0.061 log2 fold change; in assay [1] (dose 10.00 uM), 0.174 log2 fold change. Also, the Dose.FC.LYZ.NS was 0.043 log2 fold change in assay [2] (dose 0.08 uM), 0.036 log2 fold change in assay [2] (dose 0.40 uM), 0.059 log2 fold change in assay [2] (dose 2.00 uM) and 0.022 log2 fold change in assay [2] (dose 10.00 uM). The “Z.LYZ.NS (standard z score)” value was determined as 0.371 in assay [2] (dose 0.08 uM), 0.317 in assay [2] (dose 0.40 uM), 0.516 in assay [2] (dose 2.00 uM) and 0.190 in assay [2] (dose 10.00 uM).

Source of the values: patent US20220323406A1, “METHODS AND COMPOSITIONS FOR DIFFERENTIATING STEM CELLS” (Massachusetts Institute of Technology, priority 2019, published 2022).
